One data set has as its system HUVEC. In words: Cytotoxicity against HUVEC after 48 hrs by MTT assay. The format is cell-based. To be noted: Homo sapiens. For orientation: Tetrazolium assays rely on reduction of a dye to a coloured formazan, in cell work by metabolically active cells.
The subject of data set [1] is Hep 3B2. In words: Growth inhibition of human Hep3B cells at 10 uM after 24 hrs by MTT assay relative to control. The format is functional. To be noted: read-out: GI.
A short description of data set [2]: Growth inhibition of HUVEC at 12.5 uM after 24 hrs by MTT assay relative to control. To be noted: human, HUVEC cells; read-out: GI. The format is cell-based.
Data set [3] can be described thus: Growth inhibition of HUVEC at 25 uM after 24 hrs by MTT assay relative to control. In kind it is cell-based. The settings on record: human, HUVEC cells; read-out: GI.
For data set [4], the system named is Hep 3B2. In words: Cell cycle arrest in human Hep3B cells assessed as accumulation at sub-G1 phase at 20 uM after 24 hrs by propidium iodide staining based flow cytometry (reference value: 1.9 to 3.6%). In kind it is functional. In general terms: Flow cytometry measures light scatter and fluorescence of single cells or particles in a stream.
Data set [5] relates to Hep 3B2. In words: Induction of autophagy in human Hep3B cells at 10 uM after 72 hrs by acridine orange staining based flow cytometry (reference value: 1.1 to 4%). The format is functional.
Data set [6] concerns Hep 3B2. In words: Induction of autophagy in human Hep3B cells at 20 uM after 24 hrs by acridine orange staining based flow cytometry (reference value: 1.1 to 1.3%). The format is functional.
Data set [7] has as its system Hep 3B2. In words: Induction of autophagy in human Hep3B cells at 20 uM after 48 hrs by acridine orange staining based flow cytometry (reference value: 0.9 to 3%). In kind it is functional.
The test system of data set [8] is Hep 3B2. In words: Induction of autophagy in human Hep3B cells after 48 to 72 hrs by acridine orange staining based flow cytometry. In kind it is functional, cell-based.
Data set [9] deals with Hep 3B2. In words: Growth inhibition of human Hep3B cells at 5 uM after 48 hrs in presence of curcumin by MTT assay. In kind it is functional.
The subject of data set [10] is Hep 3B2. In words: Cell cycle arrest in human Hep3B cells assessed as accumulation at S phase at 10 uM after 48 hrs in absence of curcumin by propidium iodide staining based flow cytometry (reference value: 23.8 +/- 1.9%). In kind it is functional.
Data set [11] concerns Hep 3B2. In words: Induction of autophagy in human Hep3B cells assessed as ratio of LC3-2 to beta-actin level at 10 uM after 48 hrs in absence of curcumin by Western blot analysis. The format is functional. (In western blotting, separated proteins are transferred to a membrane and probed.)
The subject of data set [12] is Hep 3B2. In words: Growth inhibition of human Hep3B cells at 20 uM up to 72 hrs by MTT assay. In kind it is functional, cell-based.
In data set [13] the test system is Hep 3B2. In words: Up regulation of […] expression in human Hep3B cells at 1 uM after 6 to 24 hrs by L1000 expression profiling method relative to control. In kind it is functional.
In data set [14] the test system is Hep 3B2. In words: Up regulation of CCND1 expression in human Hep3B cells at 1 uM after 6 to 24 hrs by L1000 expression profiling method relative to control. The format is functional.
Data set [15] concerns Hep 3B2. In words: Down regulation of SLC27A3 expression in human Hep3B cells at 1 uM after 6 to 24 hrs by L1000 expression profiling method relative to control. In kind it is functional.
Data set [16] concerns Hep 3B2. In words: Down regulation of PAPD7 expression in human Hep3B cells at 1 uM after 6 to 24 hrs by L1000 expression profiling method relative to control. The format is functional.
In data set [17] the test system is Hep 3B2. In words: Down regulation of PTPRK expression in human Hep3B cells at 1 uM after 6 to 24 hrs by L1000 expression profiling method relative to control. The format is functional.
In data set [18] the test system is Hep 3B2. In words: Down regulation of EDN1 expression in human Hep3B cells at 1 uM after 6 to 24 hrs by L1000 expression profiling method relative to control. The format is functional.
Data set [19] concerns Hep 3B2. In words: Down regulation of PLA2G4A expression in human Hep3B cells at 1 uM after 6 to 24 hrs by L1000 expression profiling method relative to control. The format is functional.
Data set [20] deals with Hep 3B2. In words: Down regulation of TFAP2A expression in human Hep3B cells at 1 uM after 6 to 24 hrs by L1000 expression profiling method relative to control. In kind it is functional.
Data set [21] concerns Hep 3B2. In words: Down regulation of MMP2 expression in human Hep3B cells at 1 uM after 6 to 24 hrs by L1000 expression profiling method relative to control. In kind it is functional.
In data set [22] the test system is Hep 3B2. In words: Down regulation of SNX7 expression in human Hep3B cells at 1 uM after 6 to 24 hrs by L1000 expression profiling method relative to control. In kind it is functional.
Data set [23] relates to Hep 3B2. In words: Down regulation of PIK3CA expression in human Hep3B cells at 1 uM after 6 to 24 hrs by L1000 expression profiling method relative to control. In kind it is functional.
Data set [24] deals with Hep 3B2. In words: Down regulation of EXT1 expression in human Hep3B cells at 1 uM after 6 to 24 hrs by L1000 expression profiling method relative to control. In kind it is functional.
For data set [25], the system named is Hep 3B2. In words: Cell cycle arrest in human Hep3B cells assessed as accumulation at G0/G1 phase at 5 uM after 72 hrs by propidium iodide staining based flow cytometry (reference value: 41.6 to 46.2%). The format is functional.
Data set [26] relates to Hep 3B2. In words: Cell cycle arrest in human Hep3B cells assessed as accumulation at G0/G1 phase at 10 uM after 24 hrs by propidium iodide staining based flow cytometry (reference value: 36.3 to 39.0%). In kind it is functional.
In data set [27] the test system is Hep 3B2. In words: Cell cycle arrest in human Hep3B cells assessed as accumulation at G0/G1 phase at 20 uM after 48 hrs by propidium iodide staining based flow cytometry (reference value: 39.7 to 40.4%). The format is functional.
Data set [28] deals with Hep 3B2. In words: Cell cycle arrest in human Hep3B cells assessed as accumulation at S phase at 2.5 uM after 24 hrs by propidium iodide staining based flow cytometry (reference value: 22.6 to 27.1%). In kind it is functional.
Data set [29] relates to Hep 3B2. In words: Cell cycle arrest in human Hep3B cells assessed as accumulation at S phase at 2.5 uM after 72 hrs by propidium iodide staining based flow cytometry (reference value: 16.4 to 21.1%). The format is functional.
In data set [30] the test system is Hep 3B2. In words: Cell cycle arrest in human Hep3B cells assessed as accumulation at S phase at 5 uM after 72 hrs by propidium iodide staining based flow cytometry (reference value: 16.4 to 21.1%). In kind it is functional.
Data set [31] relates to Hep 3B2. In words: Cell cycle arrest in human Hep3B cells assessed as accumulation at S phase at 20 uM after 24 hrs by propidium iodide staining based flow cytometry (reference value: 22.6 to 27.1%). In kind it is functional.
In data set [32] the test system is Hep 3B2. In words: Cell cycle arrest in human Hep3B cells assessed as accumulation at G2/M phase at 10 uM after 72 hrs by propidium iodide staining based flow cytometry (reference value: 28.7 to 32.3%). The format is functional.
Data set [33] relates to Hep 3B2. In words: Cell cycle arrest in human Hep3B cells assessed as accumulation at G2/M phase at 20 uM after 72 hrs by propidium iodide staining based flow cytometry (reference value: 28.7 to 32.3%). The format is functional.
Data set [34] deals with Hep 3B2. In words: Cell cycle arrest in human Hep3B cells assessed as accumulation at G0/G1 phase at 2.5 uM after 24 hrs by propidium iodide staining based flow cytometry (reference value: 36.3 to 39.0%). The format is functional.
Data set [35] deals with Hep 3B2. In words: Cell cycle arrest in human Hep3B cells assessed as accumulation at G2/M phase at 2.5 uM after 72 hrs by propidium iodide staining based flow cytometry (reference value: 28.7 to 32.3%). In kind it is functional.
Data set [36] concerns Hep 3B2. In words: Cell cycle arrest in human Hep3B cells assessed as accumulation at G2/M phase at 40 uM after 24 hrs by propidium iodide staining based flow cytometry (reference value: 31.8 to […]%). The format is functional.
Data set [37] concerns Hep 3B2. In words: Induction of apoptosis in human Hep3B cells assessed as ratio of cleaved caspase-3 to beta actin level at 40 uM after 72 hrs in presence of curcumin by Western blot analysis. The format is functional.

Structures are written as SMILES. Activity calls are given as the source filed them. The calls are words filed in the database; no cut-off is given here.

The IC50 is the point on the concentration scale where inhibition reaches its midpoint. In the case of `O=C1COc2ccccc2N1Cc1cn(CCC2OCCO2)nn1`, in the data set on HUVEC, the IC50 is 115 µM. In addition, the inhibition of growth at 10 µM in the data set on Hep 3B2 [1] is 18%. Also, the inhibition at 24 h, 12.5 µM in data set [2] turned out to be 15.2%. In addition, in data set [3], the inhibition at 24 h, 25 µM was found to be 23.8%. The Activity with Hep 3B2 [4] was 34.1%; in the data set with Hep 3B2 [5] it was 49.4%; with Hep 3B2 [6], 5.5%; with Hep 3B2 [7], 37%; in the data set with Hep 3B2 [8] it was “Dose-dependent effect”; with Hep 3B2 [10], 13.9%. In addition, in the data set on Hep 3B2 [9], the CI amounted to 0.92. The Ratio in the data set with Hep 3B2 [11] is 2.2. For the same compound, the “growth inhibition (GI)” value with Hep 3B2 [12] is “Active”. The log2FC is 3.5557 with Hep 3B2 [13]; 3.2544 with Hep 3B2 [14]; -3.1535 with Hep 3B2 [15]; -3.2796 with Hep 3B2 [16]; -3.3276 in the data set on Hep 3B2 [17]; -3.5482 in the data set with Hep 3B2 [18]. In addition, the log2FC with Hep 3B2 [19] is listed as -3.7476; in the data set with Hep 3B2 [20], -3.78; in the data set on Hep 3B2 [21], -4.0779; with Hep 3B2 [22] it was -4.1511; with Hep 3B2 [23], -4.2586; in the data set on Hep 3B2 [24], -4.2621.
`CNC(=O)c1cc(Oc2ccc(NC(=O)Nc3ccc(Cl)c(C(F)(F)F)c3)cc2)ccn1` [SORAFENIB] showed a half-inhibitory concentration (IC50) in the data set on HUVEC of 40.6 µM. Moreover, the inhibition of growth at 10 µM in the data set with Hep 3B2 [1] was 8.6%. Besides, the inhibition at 24 h, 12.5 µM in [2] was determined as 37.4%. The inhibition at 24 h, 25 µM in data set [3] was 41.4%. The Activity in the data set on Hep 3B2 [25] is 47.8%; in the data set on Hep 3B2 [26], 53.6%; in the data set with Hep 3B2 [27] it was 27.8%; with Hep 3B2 [28], 21.9%; with Hep 3B2 [29], 15%; with Hep 3B2 [30], 13.7%. Besides, the figures for the Activity with Hep 3B2 [31], in the data set on Hep 3B2 [32] and in the data set on Hep 3B2 [33] were 14.3%, 22.7% and 15.2%, respectively.
As for `COc1ccc(CNC(=O)Nc2ncc([N+](=O)[O-])s2)cc1`, the Activity in the data set on Hep 3B2 [4] was 4.7%; with Hep 3B2 [34] it was 36.8%; in the data set on Hep 3B2 [25], 42.4%; in the data set with Hep 3B2 [26], 34.3%; in the data set on Hep 3B2 [27] it was 37.8%; with Hep 3B2 [28], 25.7%. The Activity in the data set with Hep 3B2 [29] stood at 21.1%; in the data set with Hep 3B2 [30], 21.7%; in the data set on Hep 3B2 [31], 25.1%; with Hep 3B2 [35] it was 35.3%; in the data set on Hep 3B2 [32], 34.1%; in the data set with Hep 3B2 [33], 34.9%. Further, the Activity in the data set with Hep 3B2 [5] stood at 13.2%; in the data set on Hep 3B2 [6] it was 8.9%; with Hep 3B2 [7] it was 5.5%; with Hep 3B2 [36] it was 37.6%. The Ratio in the data set on Hep 3B2 [37] is given as 1.1.
